Assay results taken from US10588317B2, “Isoxazoline-substituted benzamides and analogues as insecticides” (priority 2015, dated 2020).

Columns and labels:
Type in all cases: in vivo
[1] = system: Diabrotica balteata; experiment: Diabrotica balteata (corn root worm), sprayed maize sprouts; settings: 96 h, application rate 200 ppm, L2 larvae, 4 days after infestation, read-out: effect in at least one of the two categories (mortality or growth inhibition)
In short: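 Maize sprouts on agar sprayed with aqueous dilutions of DMSO stocks, dried, then infested with L2 larvae (6–10 per well). Mortality and growth inhibition scored against untreated controls 4 days after infestation, at 200 ppm application rate.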

[2] = system: Euschistus heros; experiment: Euschistus heros (neotropical brown stink bug), sprayed soybean leaves; settings: 120 h, application rate 200 ppm, N2 nymphs, 5 days after infestation, read-out: effect in at least one of the two categories (mortality or growth inhibition)
In short: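 Soybean leaves on agar sprayed with aqueous dilutions of DMSO stocks, dried, then infested with N2 nymphs. Mortality and growth inhibition scored against untreated samples 5 days after infestation; application rate 200 ppm.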

[3] = system: Myzus persicae; experiment: Myzus persicae (green peach aphid): feeding/contact activity; settings: 144 h, application rate 200 ppm, aphid population of mixed ages, 6 days after infestation, read-out: mortality
Method: (§1) Sunflower leaf discs were placed onto agar in a 24-well microtiter plate and sprayed with aqueous test solutions prepared from 10'000 ppm DMSO stock solutions. After drying, the leaf discs were infested with an aphid population of mixed ages. The samples were assessed for mortality 6 days after infestation.

[4] = system: Plutella xylostella; experiment: Plutella xylostella (diamond back moth), artificial diet; settings: 120 h, application rate 200 ppm, L2 larvae, 5 days after infestation, read-out: effect in at least one of the two categories (mortality or growth inhibition)
In short: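 Artificial diet in 24-well plates treated with aqueous test solutions made from 10'000 ppm DMSO stocks, dried, then infested with L2 larvae (10 to 15 per well). Mortality and growth inhibition scored against untreated samples 5 days after infestation; activity cut-off at least 80% in either category at 200 ppm.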

[5] = system: Spodoptera littoralis; experiment: Spodoptera littoralis (Egyptian cotton leaf worm), sprayed cotton leaf discs; settings: foliar, 72 h, application rate 200 ppm, L1 larvae, 3 days after infestation, read-out: control (mortality, anti-feeding effect, growth inhibition)
In short: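 Cotton leaf discs on agar sprayed with aqueous test solutions made from 10'000 ppm DMSO stock; after drying, infested with five L1 larvae. Mortality, anti-feeding and growth inhibition scored versus untreated samples 3 days after infestation; control counted when any category exceeds untreated.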

[6] = system: Tetranychus urticae; experiment: Tetranychus urticae (two-spotted spider mite): feeding/contact activity; settings: 192 h, application rate 200 ppm, mixed population (mobile stages), 8 days after infestation, read-out: mortality
Method: Bean leaf discs on agar in 24-well microtiter plates were sprayed with aqueous test solutions prepared from 10'000 ppm DMSO stock solutions. After drying the leaf discs were infested with a mite population of mixed ages. The samples were assessed for mortality on mixed population (mobile stages) 8 days after infestation.

[7] = system: Thrips tabaci; experiment: Thrips tabaci (onion thrips): feeding/contact activity; settings: 144 h, application rate 200 ppm, Thrips population of mixed ages, 6 days after infestation, read-out: mortality
Method: as §1, with “on” for “onto”, “in” for “in a”, “plates” for “plate”, “drying” for “drying,”, “a Thrips” for “an aphid”

CCCS(=O)(=O)N1CC(NC(=O)c2ccc(C3=NO[C@@](c4cc(Cl)c(F)c(Cl)c4)(C(F)(F)F)C3)cc2C)CO1 (some centres unmarked) [Compound A3]
≥ 80%: percent effect (mortality or growth inhibition) at 200 ppm [1] | percent effect (mortality or growth inhibition) at 200 ppm [2] | mortality at 200 ppm [3] | percent effect (mortality or growth inhibition) at 200 ppm [4] | mortality at 200 ppm [5] | mortality at 200 ppm [6] | mortality at 200 ppm [7]

Cc1cc(C2=NO[C@@](c3ccc(F)c(C(F)(F)F)c3)(C(F)(F)F)C2)ccc1C(=O)N[C@H]1CON(S(C)(=O)=O)C1 [Compound A183]
≥ 80%: percent effect (mortality or growth inhibition) at 200 ppm [1] | percent effect (mortality or growth inhibition) at 200 ppm [2] | mortality at 200 ppm [3] | percent effect (mortality or growth inhibition) at 200 ppm [4] | mortality at 200 ppm [5] | mortality at 200 ppm [6] | mortality at 200 ppm [7]

Cc1cc(C2=NO[C@@](c3cc(Cl)cc(C(F)(F)F)c3)(C(F)(F)F)C2)ccc1C(=O)N[C@@H]1CON(S(=O)(=O)CC(F)(F)F)C1 [Compound A214]
≥ 80%: percent effect (mortality or growth inhibition) at 200 ppm [1] | percent effect (mortality or growth inhibition) at 200 ppm [2] | mortality at 200 ppm [3] | percent effect (mortality or growth inhibition) at 200 ppm [4] | mortality at 200 ppm [5] | mortality at 200 ppm [6] | mortality at 200 ppm [7]

C#CCN(CC)S(=O)(=O)N1C[C@@H](NC(=O)c2ccc(C3=NO[C@@](c4cc(Cl)cc(Cl)c4)(C(F)(F)F)C3)cc2Cl)CO1 [Compound A161, 2-chloro-4-[(5S)-5-(3,5-dichlorophenyl)-5-(trifluoromethyl)-4H-isoxazol-3-yl]-N-[(4R)-2-[ethyl(prop-2-ynyl)sulfamoyl]isoxazolidin-4-yl]benzamide]
≥ 80%: percent effect (mortality or growth inhibition) at 200 ppm [1] | percent effect (mortality or growth inhibition) at 200 ppm [2] | mortality at 200 ppm [3] | percent effect (mortality or growth inhibition) at 200 ppm [4] | mortality at 200 ppm [5] | mortality at 200 ppm [6] | mortality at 200 ppm [7]

Cc1cc(C2=NO[C@@](c3cc(Cl)c(F)c(Cl)c3)(C(F)(F)F)C2)ccc1C(=O)NC1CON(S(=O)(=O)N(C)C(=O)N(C)C)C1 (some centres unmarked) [Compound A74]
≥ 80%: percent effect (mortality or growth inhibition) at 200 ppm [1] | percent effect (mortality or growth inhibition) at 200 ppm [2] | mortality at 200 ppm [3] | percent effect (mortality or growth inhibition) at 200 ppm [4] | mortality at 200 ppm [5] | mortality at 200 ppm [6] | mortality at 200 ppm [7]

Cc1cc(C2=NO[C@@](c3cccc(C(F)(F)F)n3)(C(F)(F)F)C2)ccc1C(=O)N[C@H]1CON(S(C)(=O)=O)C1 [Compound A215]
≥ 80%: percent effect (mortality or growth inhibition) at 200 ppm [1] | percent effect (mortality or growth inhibition) at 200 ppm [2] | mortality at 200 ppm [3] | percent effect (mortality or growth inhibition) at 200 ppm [4] | mortality at 200 ppm [5] | mortality at 200 ppm [6] | mortality at 200 ppm [7]

Cc1cc(C2=NO[C@@](c3cc(Cl)c(F)c(Cl)c3)(C(F)(F)F)C2)ccc1C(=O)NC1CON(S(=O)(=O)N(C)C(=O)c2ccccc2)C1 (stereo partly drawn) [Compound A80, N-[2-[benzoyl(methyl)sulfamoyl]isoxazolidin-4-yl]-4-[(5S)-5-(3,5-dichloro-4-fluoro-phenyl)-5-(trifluoromethyl)-4H-isoxazol-3-yl]-2-methyl-benzamide]
≥ 80%: percent effect (mortality or growth inhibition) at 200 ppm [1] | percent effect (mortality or growth inhibition) at 200 ppm [2] | mortality at 200 ppm [3] | percent effect (mortality or growth inhibition) at 200 ppm [4] | mortality at 200 ppm [5] | mortality at 200 ppm [6] | mortality at 200 ppm [7]

CN(C1CC1)S(=O)(=O)N1C[C@@H](NC(=O)c2ccc(C3=NO[C@@](c4cc(Cl)cc(Cl)c4)(C(F)(F)F)C3)cc2Cl)CO1 [Compound A153]
≥ 80%: percent effect (mortality or growth inhibition) at 200 ppm [1] | percent effect (mortality or growth inhibition) at 200 ppm [2] | mortality at 200 ppm [3] | percent effect (mortality or growth inhibition) at 200 ppm [4] | mortality at 200 ppm [5] | mortality at 200 ppm [6] | mortality at 200 ppm [7]

O=C(N[C@H]1CON(S(=O)(=O)NC2CC2)C1)c1ccc(C2=NO[C@@](c3cc(Cl)cc(Cl)c3)(C(F)(F)F)C2)cc1Cl [Compound A154]
≥ 80%: percent effect (mortality or growth inhibition) at 200 ppm [1] | percent effect (mortality or growth inhibition) at 200 ppm [2] | mortality at 200 ppm [3] | percent effect (mortality or growth inhibition) at 200 ppm [4] | mortality at 200 ppm [5] | mortality at 200 ppm [6] | mortality at 200 ppm [7]

CCN(C(C)C)S(=O)(=O)N1CC(NC(=O)c2ccc(C3=NO[C@@](c4cc(Cl)c(Cl)c(Cl)c4)(C(F)(F)F)C3)cc2C)CO1 (some centres unmarked) [Compound A104]
≥ 80%: percent effect (mortality or growth inhibition) at 200 ppm [1] | percent effect (mortality or growth inhibition) at 200 ppm [2] | mortality at 200 ppm [3] | percent effect (mortality or growth inhibition) at 200 ppm [4] | mortality at 200 ppm [5] | mortality at 200 ppm [6] | mortality at 200 ppm [7]

Cc1cc(C2=NO[C@](c3cc(Cl)c(F)c(Cl)c3)(C(F)(F)F)C2)ccc1C(=O)N[C@H]1CON(S(=O)(=O)CC(F)(F)F)C1 [Compound A192, 4-[(5R)-5-(3,5-dichloro-4-fluorophenyl)-5-(trifluoromethyl)-4H-1,2-oxazol-3-yl]-2-methyl-N-[(4R)-2-(2,2,2-trifluoroethylsulfonyl)-1,2-oxazolidin-4-yl]benzamide]
≥ 80%: percent effect (mortality or growth inhibition) at 200 ppm [1] | percent effect (mortality or growth inhibition) at 200 ppm [2] | mortality at 200 ppm [3] | percent effect (mortality or growth inhibition) at 200 ppm [4] | mortality at 200 ppm [5] | mortality at 200 ppm [6] | mortality at 200 ppm [7]

Cc1cc(C2=NO[C@@](c3cc(Cl)cc(Cl)c3)(C(F)(F)F)C2)ccc1C(=O)N[C@@H]1CON(S(=O)(=O)CC(=O)O)C1 [Compound A174, 2-[[(4S)-4-[[4-[(5S)-5-(3,5-dichlorophenyl)-5-(trifluoromethyl)-4H-1,2-oxazol-3-yl]-2-methylbenzoyl]amino]-1,2-oxazolidin-2-yl]sulfonyl]acetic acid]
≥ 80%: percent effect (mortality or growth inhibition) at 200 ppm [1] | percent effect (mortality or growth inhibition) at 200 ppm [2] | mortality at 200 ppm [3] | percent effect (mortality or growth inhibition) at 200 ppm [4] | mortality at 200 ppm [5] | mortality at 200 ppm [6] | mortality at 200 ppm [7]

Cc1cc(C2=NO[C@@](c3cc(Cl)c(F)c(Cl)c3)(C(F)(F)F)C2)ccc1C(=O)N[C@@H]1CON(S(=O)(=O)CC(=O)O)C1 [Compound A200]
≥ 80%: percent effect (mortality or growth inhibition) at 200 ppm [1] | percent effect (mortality or growth inhibition) at 200 ppm [2] | mortality at 200 ppm [3] | percent effect (mortality or growth inhibition) at 200 ppm [4] | mortality at 200 ppm [5] | mortality at 200 ppm [6] | mortality at 200 ppm [7]

COCCS(=O)(=O)N1CC(NC(=O)c2ccc(C3=NO[C@@](c4cc(Cl)c(F)c(Cl)c4)(C(F)(F)F)C3)cc2C)CO1 (some centres unmarked) [Compound A18]
≥ 80%: percent effect (mortality or growth inhibition) at 200 ppm [1] | percent effect (mortality or growth inhibition) at 200 ppm [2] | mortality at 200 ppm [3] | percent effect (mortality or growth inhibition) at 200 ppm [4] | mortality at 200 ppm [5] | mortality at 200 ppm [6] | mortality at 200 ppm [7]
